Tests used:
Format in all cases: cell-based, human
[1] = system: CD8+ T cell depleted blood; test: Whole blood cytokine assay, IL-2, CD8+ T cell depleted blood (Example 2); conditions: T1D Subjects (n of 6), 24 h, peptides 20 ug/mL, pools 4 ug/mL, NEX-01/Nexgen POOL 25 uM, CEFT 1 ug/mL
Protocol: (§1) Depletion of human CD4+ and CD8+ T cells directly from whole blood, using CD4 and CD8 Dynabeads respectively (Dynabeads Human CD4, Life Technologies, #11145D; Dynabeads Human CD8, Life Technologies, #11145D), was done according to the manufacturer's protocol. Briefly, the Dynabeads were resuspended and the desired volume was transferred to a 15 Ml tube. The calculation of the volume of beads added to whole blood was 2×10^6 CD4 beads (25 μL) and 4×10^6 CD8 beads (50 μL) per Ml of whole blood. The beads were first washed with 3 Ml PBS, vortexed and placed on the magnet for 1 minute. Supernatant was discarded and beads were removed from the magnet. Whole blood was then added to the beads at the volume calculated for the concentration of beads in the tubes. The tubes containing whole blood and Dynabeads were then incubated 45 minutes at 4° C. on a continuous rocker.
(§2) Tubes were then placed into the magnet for 2 minutes. The whole blood supernatant was then transferred to a new tube for use in 24-hour Whole Blood Assay or for Flow Cytometric Analysis. Magnetic beads were discarded.
(§3) The depleted blood as well as the remaining undepleted whole blood was then utilized in whole blood cytokine release assays. T-cell cytokine responses were assessed for reactivity to pools of 17mer peptides encompassing all unique 12mer amino-acid sequences derived from pancreatic islet antigens commonly recognized by autoantibodies in T1D: insulin, glutamic decarboxylase-65 (GAD65), and insulinoma-associated antigen (IA)-2 as provided in Table 13A and Table 13B.
(§4) Fresh heparinized blood was incubated with peptide. Concentrations of individual islet-autoantigen peptides were 20 μg/mL and constituent peptides in islet-autoantigen pools were 4 ug/mL. Control MHC class II peptide mix CEFT was used at 1 μg/mL. Gliadin peptide pools were added to whole blood assays at 25 μM. Whole blood assays were incubated for 24 h at 37° C. in 5% CO2. Plasma was separated from blood after centrifugation at 500×g for 10 minutes at room temperature and then transferred to a corresponding well in a “mirror image” sterile 96-well plate. and frozen at −80° C. until use. Multiplex bead-based cytokine assays (MAGPix) were performed according to manufacturer's instructions on thawed plasma. Concentrations of interferon (IFN)-γ-induced protein-10 (IP-10), interleukin (IL)-2 and IFN-γ. Table 14 is a summary of the results for the whole blood cytokine assays which expresses the data in the number of subjects that are positive for ≥1.25 fold production of cytokine over cells incubated with medium only (background).

undepleted whole blood [2] = test: Whole blood cytokine assay, IP-10, undepleted blood, number of subjects with >=1.25 fold over medium (Example 2); conditions: 24 h, peptides 20 ug/mL, pools 4 ug/mL, NEX-01/Nexgen POOL 25 uM, CEFT 1 ug/mL
Protocol: as §3, §4

[3] = system: CD8+ T cell depleted blood; test: Whole blood cytokine assay, IFNg, CD8+ T cell depleted blood (Example 2); conditions: T1D Subjects (n of 6), 24 h, peptides 20 ug/mL, pools 4 ug/mL, NEX-01/Nexgen POOL 25 uM, CEFT 1 ug/mL
Protocol: as §1, §2, §3, §4

[4] = system: CD8+ T cell depleted blood; test: Whole blood cytokine assay, IP-10, CD8+ T cell depleted blood (Example 2); conditions: T1D Subjects (n of 6), 24 h, peptides 20 ug/mL, pools 4 ug/mL, NEX-01/Nexgen POOL 25 uM, CEFT 1 ug/mL
Protocol: as §1, §2, §3, §4

[5] = system: CD4+ T cell depleted blood; test: Whole blood cytokine assay, IP-10, CD4+ T cell depleted blood (Example 2); conditions: T1D Subjects (n of 6), 24 h, peptides 20 ug/mL, pools 4 ug/mL, NEX-01/Nexgen POOL 25 uM, CEFT 1 ug/mL
Protocol: as §1, §2, §3, §4

[6] = system: CD4+ T cell depleted blood; test: Whole blood cytokine assay, IFNg, CD4+ T cell depleted blood (Example 2); conditions: T1D Subjects (n of 6), 24 h, peptides 20 ug/mL, pools 4 ug/mL, NEX-01/Nexgen POOL 25 uM, CEFT 1 ug/mL
Protocol: as §1, §2, §3, §4

undepleted whole blood [7] = test: Whole blood cytokine assay, IL-2, undepleted blood, number of subjects with >=1.25 fold over medium (Example 2); conditions: T1D Subjects (n of 6); Undepleted WB; 24 h; peptides 20 ug/mL, pools 4 ug/mL, NEX-01/Nexgen POOL 25 uM, CEFT 1 ug/mL
Protocol: as §3, §4

[8] = system: whole blood from subjects with T1D and Celiac disease; test: Whole blood cytokine release assay, IP-10 (MAGPIX), Example 1; conditions: individual 17mer 20 μg/mL, blood 6 days after commencing oral gluten challenge; for subjects with elevated whole blood IP-10 release (2-fold greater than medium alone): four subjects
[9] = system: whole blood from subjects with T1D and Celiac disease; test: Whole blood cytokine release assay, IL-2 (MAGPIX), Example 1; conditions: individual 17mer 20 μg/mL, blood 6 days after commencing oral gluten challenge; for subjects with elevated whole blood IL-2 release: four subjects
[10] = system: whole blood from subjects with T1D and Celiac disease; test: Whole blood cytokine release assay, IFN-γ (MAGPIX), Example 1; conditions: individual 17mer 20 μg/mL, blood 6 days after commencing oral gluten challenge; for subjects with elevated whole blood IFN-γ release: four subjects
[11] = Healthy Subjects (n of 4), whole blood
[12] = T1D Subjects (n of 6), Undepleted WB

Substance	Fold Change IP-10, number of subjects positive for ≥1.25 fold production of cytokine over medium only (undepleted whole blood [2]; [11])	Fold Change IP-10, number of subjects positive for ≥1.25 fold production of cytokine over medium only (undepleted whole blood [2]; [12])	Fold Change IP-10, number of subjects positive for ≥1.25 fold production of cytokine over medium only [4]	Fold Change IFNg, number of subjects positive for ≥1.25 fold production of cytokine over medium only [6]	IP-10 fold-change ([8]; Subject 1)	IP-10 fold-change (preproinsulin peptides) ([8]; Subject 1) [fold]	IP-10 fold-change ([8]; Subject 2)	IP-10 fold-change (preproinsulin peptides) ([8]; Subject 2) [fold]	IP-10 fold-change ([8]; Subject 6)	IP-10 fold-change (preproinsulin peptides) ([8]; Subject 6) [fold]	IP-10 fold-change ([8]; Subject 7)	IP-10 fold-change (preproinsulin peptides) ([8]; Subject 7) [fold]	IL-2 fold-change ([9]; Subject 1)	IL-2 fold-change (preproinsulin peptides) ([9]; Subject 1) [fold]	IL-2 fold-change ([9]; Subject 2)	IL-2 fold-change (preproinsulin peptides) ([9]; Subject 2) [fold]	IL-2 fold-change ([9]; Subject 6)	IL-2 fold-change (preproinsulin peptides) ([9]; Subject 6) [fold]	IL-2 fold-change ([9]; Subject 7)	IL-2 fold-change (preproinsulin peptides) ([9]; Subject 7) [fold]	also measured
20150-01: peptide tested in Example 2 whole blood cytokine assays (Tables 13A/13B, 14) (FYTPKTRREAEDLQGSL)	2/4	4/6	–	–	–	–	–	–	–	–	–	–	–	–	–	–	–	–	–	–	Fold Change IL-2, number of subjects positive for ≥1.25 fold production of cytokine over medium only [1]: 1/6
20150-05-W1: peptide tested in Example 2 whole blood cytokine assays (Tables 13A/13B, 14) (REAEDLQVGQVELGGGP)	3/4	4/6	5/6	1/6	–	–	–	–	–	–	–	–	–	–	–	–	–	–	–	–	Fold Change IFNg, number of subjects positive for ≥1.25 fold production of cytokine over medium only [3]: 1/6; Fold Change IL-2, number of subjects positive for ≥1.25 fold production of cytokine over medium only [1]: 1/6; Fold Change IP-10, number of subjects positive for ≥1.25 fold production of cytokine over medium only [5]: 3/6
20150-11-W1 (NQHLCGSHLVEALYLVC)	2/4	2/6	2/6	1/6	–	–	–	–	–	–	–	–	–	–	–	–	–	–	–	–	Fold Change IFNg, number of subjects positive for ≥1.25 fold production of cytokine over medium only [3]: 1/6; Fold Change IL-2, number of subjects positive for ≥1.25 fold production of cytokine over medium only (undepleted whole blood [7]): 1/6
20150-15 (LQGSLQPLALEGSLQKR) [Peptide 20150-15]	–	–	–	1/6	–	–	–	–	–	–	–	–	–	–	–	–	–	–	–	–	Fold Change IFNg, number of subjects positive for ≥1.25 fold production of cytokine over medium only [3]: 2/6; Fold Change IL-2, number of subjects positive for ≥1.25 fold production of cytokine over medium only [1]: 1/6
L2P1, 049 (FNQLSTGLDMVGLAADW)	–	–	2/6	1/6	–	–	–	–	–	–	–	–	–	–	–	–	–	–	–	–	Fold Change IP-10, number of subjects positive for ≥1.25 fold production of cytokine over medium only [5]: 2/6
L3P1, 007 (SPLQAELLPPLLEHLLL)	2/4	–	1/6	1/6	–	–	–	–	–	–	–	–	–	–	–	–	–	–	–	–	–
L3P1, 046 (PKAARPPVTPVLLEKKS)	1/4	1/6	2/6	–	–	–	–	–	–	–	–	–	–	–	–	–	–	–	–	–	–
REAEDLQVGQVELGGGP [SEQ ID NO: 48]	–	–	–	–	2.00	2.00	1.67	1.67	1.13	1.13	2.48	2.48	1.00	1.00	1.00	1.00	1.12	1.12	0.50	0.50	subjects with elevated whole blood IP-10 release (2-fold greater than medium alone) [8]: immunogenic; IFN-g fold-change ([10]; Subject 1): 0.75; IFN-g fold-change (preproinsulin peptides) ([10]; Subject 1): 0.75 fold; IFN-g fold-change ([10]; Subject 2): 0.88; IFN-g fold-change (preproinsulin peptides) ([10]; Subject 2): 0.88 fold; IFN-g fold-change ([10]; Subject 6): 1.07; IFN-g fold-change (preproinsulin peptides) ([10]; Subject 6): 1.07 fold; IFN-g fold-change ([10]; Subject 7): 0.67; IFN-g fold-change (preproinsulin peptides) ([10]; Subject 7): 0.67 fold
RGFFYTPKTRREAEVGE [SEQ ID NO: 57]	–	–	–	–	0.92	0.92	0.91	0.91	0.90	0.90	0.75	0.75	1.00	1.00	1.00	1.00	1.00	1.00	2.59	2.59	IFN-g fold-change ([10]; Subject 1): 1.06; IFN-g fold-change (preproinsulin peptides) ([10]; Subject 1): 1.06 fold; IFN-g fold-change ([10]; Subject 2): 0.82; IFN-g fold-change (preproinsulin peptides) ([10]; Subject 2): 0.82 fold; IFN-g fold-change ([10]; Subject 6): 1.06; IFN-g fold-change (preproinsulin peptides) ([10]; Subject 6): 1.06 fold; IFN-g fold-change ([10]; Subject 7): 1.09; IFN-g fold-change (preproinsulin peptides) ([10]; Subject 7): 1.09 fold
RREAEDLEGSLQPLALE [SEQ ID NO: 49]	–	–	–	–	1.36	1.36	2.58	2.58	3.15	3.15	0.99	0.99	1.00	1.00	1.00	1.00	1.08	1.08	0.42	0.42	IFN-g fold-change ([10]; Subject 1): 0.99; IFN-g fold-change (preproinsulin peptides) ([10]; Subject 1): 0.99 fold; IFN-g fold-change ([10]; Subject 2): 1.27; IFN-g fold-change (preproinsulin peptides) ([10]; Subject 2): 1.27 fold; IFN-g fold-change ([10]; Subject 6): 1.00; IFN-g fold-change (preproinsulin peptides) ([10]; Subject 6): 1.00 fold; IFN-g fold-change ([10]; Subject 7): 0.77; IFN-g fold-change (preproinsulin peptides) ([10]; Subject 7): 0.77 fold
SSEVQQVPSPVSSEPPK [SEQ ID NO: 68]	–	–	–	–	–	–	–	–	–	–	–	–	–	–	–	–	–	–	–	–	subjects with elevated whole blood IP-10 release (2-fold greater than medium alone) [8]: Only Subject 7 responded; subjects with elevated whole blood IL-2 release [9]: Only Subject 7 responded; subjects with elevated whole blood IFN-γ release [10]: Only Subject 7 responded
WESGCTVIVMLTPLVED [SEQ ID NO: 67]	–	–	–	–	–	–	–	–	–	–	–	–	–	–	–	–	–	–	–	–	subjects with elevated whole blood IP-10 release (2-fold greater than medium alone) [8]: Only Subject 7 responded; subjects with elevated whole blood IL-2 release [9]: Only Subject 7 responded; subjects with elevated whole blood IFN-γ release [10]: Only Subject 7 responded
YTPKTRREAEDLQVGQV [SEQ ID NO: 55]	–	–	–	–	1.06	1.06	1.22	1.22	1.56	1.56	1.42	1.42	1.00	1.00	1.00	1.00	1.04	1.04	8.00	8.00	IFN-g fold-change ([10]; Subject 1): 0.51; IFN-g fold-change (preproinsulin peptides) ([10]; Subject 1): 0.51 fold; IFN-g fold-change ([10]; Subject 2): 0.82; IFN-g fold-change (preproinsulin peptides) ([10]; Subject 2): 0.82 fold; IFN-g fold-change ([10]; Subject 6): 1.00; IFN-g fold-change (preproinsulin peptides) ([10]; Subject 6): 1.00 fold; IFN-g fold-change ([10]; Subject 7): 1.86; IFN-g fold-change (preproinsulin peptides) ([10]; Subject 7): 1.86 fold

Reference: patent publication US10473647B1, “Peptides for use in treatment and diagnosis of type 1 diabetes” (ImmusanT, Inc., priority 2014, dated 2019)
